Earlier results as cited in patent US20220305127A1, “PYRROLOBENZODIAZEPINE ANTIBODY CONJUGATES” (priority 2017, published 2022).

Settings: Phase I clinical evaluation

For `C=C1C[C@H]2C=Nc3cc(OCCCOc4cc5c(cc4OC)C(=O)N4CC(=C)C[C@H]4C=N5)c(OC)cc3C(=O)N2C1` [SJG-136], the “DNA damage in circulating lymphocytes” value is listed as “noted at all doses”, the adverse effects is listed as “vascular leak syndrome, peripheral edema, liver toxicity and fatigue” and the maximum tolerated dose is listed as 45 μg/m^2.
